Reference: patent US20220177453A1, “CRYSTALLIZATION OF SMAC MIMIC USED AS IAP INHIBITOR AND PREPARATION METHOD THEREOF” (CHIA TAI TIANQING PHARMACEUTICAL GROUP CO., LTD., priority 2019, published 2022)

How the values were obtained:
[1] = Influencing factor (high temperature, high humidity) and irradiation stability tests; type: physicochemical
[2] = Long-term accelerated stability test; type: physicochemical
Experimental: Long-term accelerated test: 22 parts of crystalline form A of the compound of formula (I) each containing 1 50 g were prepared. The samples were separately put into a double-layer LDPE bag with each layer of LDPE bag sealed separately. The bag was then put into an aluminum foil bag for heat sealing. At inspection time points, the corresponding test samples were taken out, covered with bottle caps. 0-day samples were thawed to room temperature and directly analyzed. Approximately 10 mg of the test article was subjected to XRPD. The compounds were placed in the following conditions and samples were taken at different time points for determining their properties, XRPD pattern, content and related substances.

[3] = Hygroscopicity study (DVS); type: physicochemical
Experimental: Instrument model: SMS DVS Advantage
Test conditions: crystalline form A of the compound of formula (I) (10-15 mg) was placed in a DVS sample tray for testing.
The DVS parameters are as follows: • Temperature: 25° C. • Balancing: dm/dt=0.01%/min (shortest: 10 min, longest: 180 min) • Drying: drying at 0% RH for 120 min • RH (%) measurement gradient: 10% • RH (%) measurement gradient range: 0%-90%-0%

XIAP BIR3 = biological target: T1, XIAP BIR3 (Homo sapiens, UniProt P98170); assay: XIAP BIR3 fluorescence polarization binding assay; conditions: 5 nM probe, 30 nM XIAP BIR3
T1 construct: isolated BIR3 domain of XIAP (amino acids 255-356; XIAP BIR3); His; GST; purchased RBC APT-11-374; host or cells: E. coli
Experimental: (§1) Buffer system (a buffer for cIAP1 BIR3 or XIAP BIR3): 0.1 mollL potassium phosphate, pH 7.5, 0.1% bovine serum albumin, 0.005% Triton X-100 and 1% dimethyl sulfoxide.
(§2) Probe: ARPFAQ-K(5-FAM)-NH2.
(§3) XIAP-BIR3-his: RBC (Cat# APT-11-374), isolated BIR3 domain of XIAP (amino acids 255-356; XIAP BIR3) expressed by E. coli as GST-fusion protein. Condition: 5 nM ARPFAQ-K(5-FAM)-NH2, 20 nM cIAP1 BIR3 and 30 nM XIAP BIR3.
(§4) Firstly, fresh buffer of cIAP1 BIR3 or XIAP BIR3 was prepared, and mixed with 2 folds of cIAP1 BIR3 or XIAP BIR3 solution. A solution of test compound completely dissolved in 100% DMSO via ultrasonication was added to the buffer containing cIAP1 BIR3 or XIAP BIR3. The mixture was added with 2 folds of probes, mixed and incubated for 60 min in the dark at room temperature. Fluorescence polarization was measured and mP value was calculated, finally giving an IC50 value.

[4] = system: MDA-MB-231 triple negative breast cancer CDX; assay: In vivo efficacy study 1, MDA-MB-231 triple negative breast cancer CDX model; set-up: species or system BALB/c nude mice
Experimental: (§5) In vivo efficacy study was conducted on BALB/c nude mice by subcutaneously implanting human tumor cell line-derived xenograft (CDX) from MDA-MB-231 triple negative breast cancer patients
(§6) BALB/c nude mice, female, aged 6-8 weeks, about 18-22 g, were kept in a special pathogen-free environment and in separate ventilated cages (3 mice per cage). All cages, bedding and water were disinfected prior to use. All animals had free access to standard certified commercial laboratory diets. 48 mice were purchased from Shanghai BK Laboratory Animal Co., LTD. for the study. Each mouse was implanted subcutaneously in the right flank with cancer cells (10×10^6 cells in 0.2 mL of phosphate buffered saline) for tumor growth. The mice were administered when the mean tumor volume reached about 147 mm^3. The test compounds were administered orally at a daily dose of 30 mg/kg. Tumor volume was measured every 3 days with a two-dimensional caliper, and the volume was measured in mm^3 and calculated according to the following formula: V=0.5×a×b^2, where a and b are the long and short diameters, respectively, of the tumor. Anti-tumor efficacy was determined by dividing the mean tumor increase volume of compound-treated animals by the mean tumor increase volume of untreated animals

[5] = system: MDA-MB-231 triple negative breast cancer CDX; assay: In vivo efficacy study 2, MDA-MB-231 triple negative breast cancer CDX model; set-up: species or system BALB/c nude mice
Experimental: as §5
as §6, with “tumor” for “cancer”, “(10×10^6” for “(10×10^6 cells”, “buffer)” for “buffered saline)”, “110” for “147”

cIAP1 BIR3 = biological target: T2, cIAP1 BIR3 (Homo sapiens, UniProt Q13490); assay: cIAP1 BIR3 fluorescence polarization binding assay; conditions: 5 nM probe, 20 nM cIAP1 BIR3
T2 construct: isolated BIR3 domain of human cIAP1 (amino acids 258-363); cIAP1; His; GST; purchased RBC APT-11-370; host or cells: E. coli
Text: as §1, §2
cIAP1-BIR3-his: RBC (Cat# APT-11-370), isolated BIR3 domain of human cIAP1 (amino acids 258-363; cIAP1
BIR3) expressed by E. coli as GST-fusion protein.
as §3, §4

T2 sequence (Q13490 258-363): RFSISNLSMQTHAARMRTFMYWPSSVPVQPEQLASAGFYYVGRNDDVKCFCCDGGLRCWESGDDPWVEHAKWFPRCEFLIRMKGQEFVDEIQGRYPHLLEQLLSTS
T1 sequence (P98170 255-356): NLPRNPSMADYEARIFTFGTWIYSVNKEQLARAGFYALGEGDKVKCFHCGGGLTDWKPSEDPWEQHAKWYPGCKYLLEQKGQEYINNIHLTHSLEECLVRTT

With `CN[C@@H](C)C(=O)N[C@H](C(=O)N1CCC[C@H]1Cn1cc(C(C)=O)c2cc(Cl)ccc21)C1CCCCC1` the “Content of crystalline form A (%)” value ([1]; 25° C.-92.5% RH-5 days) was 99.1%, the “Impurity content (%)” value ([1]; 25° C.-92.5% RH-5 days) was 1.16% and the “Content of crystalline form A (%)” value ([1]; 25° C.-92.5% RH-10 days) was 98.8%. For the same molecule, the “Impurity content (%)” value ([1]; 25° C.-92.5% RH-10 days) was 1.13%, the “Content of crystalline form A (%)” value ([1]; 25° C.-92.5% RH-30 days) was 99.2% and the “Impurity content (%)” value ([1]; 25° C.-92.5% RH-30 days) was 1.19%. The “Content of crystalline form A (%)” value ([1]; 60° C.-5 days) was 99%, the “Impurity content (%)” value ([1]; 60° C.-5 days) was 1.16% and the “Content of crystalline form A (%)” value ([1]; 60° C.-10 days) was 98.2%. The “Impurity content (%)” value ([1]; 60° C.-10 days) was 1.14%, the “Content of crystalline form A (%)” value ([1]; 60° C.-30 days) was 99.1% and the “Impurity content (%)” value ([1]; 60° C.-30 days) was 1.19%. The “Content of crystalline form A (%)” value ([1]; Day 0) was 98.2%, the “Impurity content (%)” value ([1]; Day 0) was 1.19% and the “Content of crystalline form A (%)” value ([1]; Irradiation-5 days) was 97.8%. For the same molecule, the “Impurity content (%)” value ([1]; Irradiation-5 days) was 1.12%, the “Content of crystalline form A (%)” value ([1]; Irradiation-10 days) was 99.3% and the “Impurity content (%)” value ([1]; Irradiation-10 days) was 1.13%. For the same molecule, the “Crystalline form stability by XRPD versus day 0” value ([1]; the various test conditions of Tables 4 and 5) was “stable”, the “Content of crystalline form A (%)” value ([2]; 25° C.-60% RH-3 months) was 98% and the “Impurity content (%)” value ([2]; 25° C.-60% RH-3 months) was 1.16%. The “Content of crystalline form A (%)” value ([2]; 25° C.-60% RH-6 months) was 99.5%, the “Impurity content (%)” value ([2]; 25° C.-60% RH-6 months) was 1.12% and the “Content of crystalline form A (%)” value ([2]; 25° C.-60% RH-9 months) was 98.2%. For the same molecule, the “Impurity content (%)” value ([2]; 25° C.-60% RH-9 months) was 1.22%, the “Content of crystalline form A (%)” value ([2]; 25° C.-60% RH-12 months) was 100.2% and the “Impurity content (%)” value ([2]; 25° C.-60% RH-12 months) was 1.09%. For the same molecule, the “Content of crystalline form A (%)” value ([2]; 40° C.-75% RH-1 month) was 99.3%, the “Impurity content (%)” value ([2]; 40° C.-75% RH-1 month) was 1.2% and the “Content of crystalline form A (%)” value ([2]; 40° C.-75% RH-2 months) was 98.1%. The “Impurity content (%)” value ([2]; 40° C.-75% RH-2 months) was 1.19%, the “Content of crystalline form A (%)” value ([2]; 40° C.-75% RH-3 months) was 97.8% and the “Impurity content (%)” value ([2]; 40° C.-75% RH-3 months) was 1.13%. The “Content of crystalline form A (%)” value ([2]; 40° C.-75% RH-6 months) was 98.5%, the “Impurity content (%)” value ([2]; 40° C.-75% RH-6 months) was 1.12% and the “Content of crystalline form A (%)” value ([2]; Day 0) was 98.2%. The “Impurity content (%)” value ([2]; Day 0) was 1.19%, the hygroscopic weight gain ([3]; 25° C. and 80% RH) was 0.72% and the Classification of hygroscopicity ([3]; weight gain at 25° C./80% RH) was “slightly hygroscopic”.
For `CN[C@@H](C)C(=O)N[C@H](C(=O)N1CCC[C@H]1Cn1cc(C(C)=O)c2cc(Cl)ccc21)C1CCCCC1` [Compound of formula (I)], the IC50 (XIAP BIR3) was 29.9 nM, the “Tumor volume (mm^3)” value ([4]; 6 days, 30 mg/kg oral daily) was 214 mm^3 and the “Tumor volume (mm^3)” value ([4]; 13 days, 30 mg/kg oral daily) was 282 mm^3. The “Tumor volume (mm^3)” value ([4]; 20 days, 30 mg/kg oral daily) was 810 mm^3, the “Tumor volume (mm^3)” value ([4]; Day 0, 30 mg/kg oral daily) was 147 mm^3 and the “Tumor volume (mm^3)” value ([5]; 5 days, 30 mg/kg oral daily) was 111 mm^3. The “Tumor volume (mm^3)” value ([5]; 12 days, 30 mg/kg oral daily) was 86 mm^3, the “Tumor volume (mm^3)” value ([5]; 20 days, 30 mg/kg oral daily) was 177 mm^3 and the “Tumor volume (mm^3)” value ([5]; Day 0, 30 mg/kg oral daily) was 110 mm^3. For the same molecule, the IC50 (cIAP1 BIR3) was 5 nM.
